What all share (test): EC50 assay: Ba/F3 stable cell proliferation (CCK-8, 72 h)
Holding throughout (assay type): cell-based

Experiment [1] has as its target T1, Ba/F3 stable cells (Homo sapiens, UniProt P00533, INS763FQEA, cells depend on it).
T1 construct: EC50 Ba/F3-EGFR A763-Y764insFQEA; other: Ba/F3-EGFR A763-Y764insFQEA cells, 72 h, CCK-8
As to conditions: Ba/F3-EGFR A763-Y764insFQEA cells. The method in brief: (§1)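 Ba/F3 stable cells were seeded at 4,000 cells/90 μL/well in 96-well plates and held 2 h at 37° C. in 5% CO2, then given 10 μL of serially titrated compound (0.1% DMSO final). After 72 h at 37° C., CCK-8 reagent was added for 4 hours and absorbance read at 450 nm to derive EC50.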

The target of experiment [2] is T2, Ba/F3 stable cells (Homo sapiens, UniProt P00533, DUP768-770, cells depend on it).
T2 construct: EC50 Ba/F3-EGFR D770-N771insSVD; other: Ba/F3-EGFR D770-N771insSVD cells, 72 h, CCK-8
As to conditions: Ba/F3-EGFR D770-N771insSVD cells. In outline:
as §1

For experiment [3], the target named is T3, Ba/F3 stable cells (Homo sapiens, UniProt P00533, DUP767-769, cells depend on it).
T3 construct: EC50 Ba/F3-EGFR V769-D770insASV; other: Ba/F3-EGFR V769-D770insASV cells, 72 h, CCK-8
As to conditions: Ba/F3-EGFR V769-D770insASV cells. The method in brief: as §1

In experiment [4] the target is T4, Ba/F3 stable cells (Homo sapiens, UniProt P00533, T790M/L858R, cells depend on it).
T4 construct: EC50 Ba/F3-EGFR L858R-T790M; other: Ba/F3-EGFR L858R-T790M cells, 72 h, CCK-8
Conditions: Ba/F3-EGFR L858R-T790M cells. In outline: as §1

Experiment [5] addresses T5, Ba/F3 stable cells (Homo sapiens, UniProt P04626, DUP772-775, cells depend on it).
T5 construct: EC50 Ba/F3-HER2 A775-G776insYVMA; other: Ba/F3-HER2 A775-G776insYVMA cells, 72 h, CCK-8
As to conditions: Ba/F3-HER2 A775-G776insYVMA cells. In outline:
as §1

Experiment [6] concerns the target T6, Ba/F3 stable cells (Homo sapiens, UniProt P00533, DUP771-773, cells depend on it).
T6 construct: EC50 Ba/F3-EGFR H773-V774insNPH; other: Ba/F3-EGFR H773-V774insNPH cells, 72 h, CCK-8
As to conditions: Ba/F3-EGFR H773-V774insNPH cells. In outline: as §1

11 compounds from patent US20250243171A1, “QUINAZOLINE COMPOUNDS FOR TREATMENT OF DISEASE” (Arthrosi Therapeutics, Inc., priority 2021, published 2025) can be followed below.

The structures appear in SMILES notation. Counter-ions that a name gives are not always drawn.

T2 sequence (P00533 with tags, fused parts or gaps DUP768-770): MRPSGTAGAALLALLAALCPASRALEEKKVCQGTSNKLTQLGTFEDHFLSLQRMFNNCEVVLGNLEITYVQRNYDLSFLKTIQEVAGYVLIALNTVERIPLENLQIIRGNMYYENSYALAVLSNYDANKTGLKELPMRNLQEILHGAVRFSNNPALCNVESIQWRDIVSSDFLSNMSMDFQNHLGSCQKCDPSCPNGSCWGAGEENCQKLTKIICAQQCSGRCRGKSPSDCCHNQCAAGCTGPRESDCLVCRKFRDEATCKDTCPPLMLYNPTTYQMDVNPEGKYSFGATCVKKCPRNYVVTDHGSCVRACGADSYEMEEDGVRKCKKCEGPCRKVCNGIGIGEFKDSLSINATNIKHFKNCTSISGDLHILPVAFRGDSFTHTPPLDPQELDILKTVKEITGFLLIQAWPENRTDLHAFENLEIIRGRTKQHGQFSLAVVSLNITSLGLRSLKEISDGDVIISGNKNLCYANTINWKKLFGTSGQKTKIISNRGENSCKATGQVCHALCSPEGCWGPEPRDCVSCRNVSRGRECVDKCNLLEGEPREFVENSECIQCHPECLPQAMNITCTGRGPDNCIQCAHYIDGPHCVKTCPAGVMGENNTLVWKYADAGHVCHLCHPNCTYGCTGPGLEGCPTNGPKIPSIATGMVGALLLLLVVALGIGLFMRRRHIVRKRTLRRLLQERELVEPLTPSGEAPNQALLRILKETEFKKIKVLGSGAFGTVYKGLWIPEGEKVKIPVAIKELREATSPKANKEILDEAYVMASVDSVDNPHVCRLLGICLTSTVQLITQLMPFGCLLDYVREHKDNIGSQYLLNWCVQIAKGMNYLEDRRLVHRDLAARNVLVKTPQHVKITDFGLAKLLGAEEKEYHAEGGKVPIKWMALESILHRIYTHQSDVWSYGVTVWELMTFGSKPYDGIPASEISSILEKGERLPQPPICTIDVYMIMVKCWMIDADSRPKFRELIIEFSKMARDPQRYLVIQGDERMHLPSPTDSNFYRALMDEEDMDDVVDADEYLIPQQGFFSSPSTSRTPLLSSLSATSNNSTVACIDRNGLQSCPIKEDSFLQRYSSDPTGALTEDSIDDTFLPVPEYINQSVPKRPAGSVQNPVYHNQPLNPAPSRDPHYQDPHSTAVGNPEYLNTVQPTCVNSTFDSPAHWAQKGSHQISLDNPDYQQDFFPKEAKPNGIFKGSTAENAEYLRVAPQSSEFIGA
T6 sequence (P00533 with tags, fused parts or gaps DUP771-773): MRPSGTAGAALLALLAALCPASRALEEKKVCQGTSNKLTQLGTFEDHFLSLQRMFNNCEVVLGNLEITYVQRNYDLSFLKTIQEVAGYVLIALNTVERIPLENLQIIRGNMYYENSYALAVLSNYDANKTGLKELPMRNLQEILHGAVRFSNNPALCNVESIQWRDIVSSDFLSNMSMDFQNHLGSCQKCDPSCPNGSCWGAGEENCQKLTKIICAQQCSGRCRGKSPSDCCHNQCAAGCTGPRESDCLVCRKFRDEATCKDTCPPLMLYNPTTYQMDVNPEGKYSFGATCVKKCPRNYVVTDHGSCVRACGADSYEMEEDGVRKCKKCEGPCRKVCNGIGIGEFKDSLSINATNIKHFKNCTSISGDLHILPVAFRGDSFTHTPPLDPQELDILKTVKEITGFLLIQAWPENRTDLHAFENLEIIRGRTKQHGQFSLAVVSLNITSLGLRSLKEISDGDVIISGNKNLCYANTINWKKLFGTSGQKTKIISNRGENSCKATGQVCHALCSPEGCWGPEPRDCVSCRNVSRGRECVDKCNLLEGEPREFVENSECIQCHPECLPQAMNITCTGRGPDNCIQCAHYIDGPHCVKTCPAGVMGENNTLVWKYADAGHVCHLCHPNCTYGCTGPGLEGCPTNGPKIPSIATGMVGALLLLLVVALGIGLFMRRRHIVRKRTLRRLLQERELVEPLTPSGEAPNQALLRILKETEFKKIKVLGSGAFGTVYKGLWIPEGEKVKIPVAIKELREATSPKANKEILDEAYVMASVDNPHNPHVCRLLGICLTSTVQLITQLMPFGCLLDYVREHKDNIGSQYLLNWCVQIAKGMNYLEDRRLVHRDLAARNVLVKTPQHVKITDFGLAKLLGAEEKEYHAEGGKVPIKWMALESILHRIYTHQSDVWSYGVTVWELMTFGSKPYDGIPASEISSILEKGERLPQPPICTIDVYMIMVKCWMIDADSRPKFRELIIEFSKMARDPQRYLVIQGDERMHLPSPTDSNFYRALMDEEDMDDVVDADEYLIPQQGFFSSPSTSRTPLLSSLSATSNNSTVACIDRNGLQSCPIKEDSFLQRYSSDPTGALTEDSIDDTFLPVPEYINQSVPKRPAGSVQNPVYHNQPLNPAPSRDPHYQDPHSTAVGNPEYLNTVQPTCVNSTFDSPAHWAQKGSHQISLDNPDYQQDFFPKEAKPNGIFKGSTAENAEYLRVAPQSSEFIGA
T5 sequence (P04626 with tags, fused parts or gaps DUP772-775): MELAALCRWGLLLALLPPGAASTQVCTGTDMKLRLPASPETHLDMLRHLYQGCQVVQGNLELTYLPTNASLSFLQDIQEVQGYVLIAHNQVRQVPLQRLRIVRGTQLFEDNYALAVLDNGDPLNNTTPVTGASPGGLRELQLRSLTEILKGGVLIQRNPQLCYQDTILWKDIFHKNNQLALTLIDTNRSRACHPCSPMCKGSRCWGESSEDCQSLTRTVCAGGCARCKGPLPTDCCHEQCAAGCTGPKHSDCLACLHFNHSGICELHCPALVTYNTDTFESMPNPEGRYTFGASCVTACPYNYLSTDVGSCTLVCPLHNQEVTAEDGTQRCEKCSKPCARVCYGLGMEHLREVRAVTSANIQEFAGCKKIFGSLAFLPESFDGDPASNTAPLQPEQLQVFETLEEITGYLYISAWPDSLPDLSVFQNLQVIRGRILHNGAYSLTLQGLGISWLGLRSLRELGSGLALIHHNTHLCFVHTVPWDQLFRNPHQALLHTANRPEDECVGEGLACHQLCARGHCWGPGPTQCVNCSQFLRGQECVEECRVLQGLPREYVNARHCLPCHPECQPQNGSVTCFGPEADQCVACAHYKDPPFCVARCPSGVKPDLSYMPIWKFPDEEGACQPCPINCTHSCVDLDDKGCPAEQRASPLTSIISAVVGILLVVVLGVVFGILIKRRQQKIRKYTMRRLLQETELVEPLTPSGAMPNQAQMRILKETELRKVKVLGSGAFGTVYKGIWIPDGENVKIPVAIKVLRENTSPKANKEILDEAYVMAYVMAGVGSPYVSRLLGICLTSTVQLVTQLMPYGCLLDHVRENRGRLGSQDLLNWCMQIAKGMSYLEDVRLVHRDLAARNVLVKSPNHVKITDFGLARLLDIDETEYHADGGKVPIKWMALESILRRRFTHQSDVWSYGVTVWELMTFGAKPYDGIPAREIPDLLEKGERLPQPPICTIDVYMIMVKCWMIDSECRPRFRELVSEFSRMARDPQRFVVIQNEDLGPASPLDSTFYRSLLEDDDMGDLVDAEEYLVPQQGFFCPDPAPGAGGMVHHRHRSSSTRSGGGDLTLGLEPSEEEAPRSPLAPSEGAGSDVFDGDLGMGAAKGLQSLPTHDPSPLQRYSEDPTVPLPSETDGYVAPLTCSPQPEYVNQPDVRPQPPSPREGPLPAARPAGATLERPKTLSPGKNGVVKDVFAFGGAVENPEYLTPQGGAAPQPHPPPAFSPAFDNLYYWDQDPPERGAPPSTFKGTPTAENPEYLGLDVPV
T3 sequence (P00533 with tags, fused parts or gaps DUP767-769): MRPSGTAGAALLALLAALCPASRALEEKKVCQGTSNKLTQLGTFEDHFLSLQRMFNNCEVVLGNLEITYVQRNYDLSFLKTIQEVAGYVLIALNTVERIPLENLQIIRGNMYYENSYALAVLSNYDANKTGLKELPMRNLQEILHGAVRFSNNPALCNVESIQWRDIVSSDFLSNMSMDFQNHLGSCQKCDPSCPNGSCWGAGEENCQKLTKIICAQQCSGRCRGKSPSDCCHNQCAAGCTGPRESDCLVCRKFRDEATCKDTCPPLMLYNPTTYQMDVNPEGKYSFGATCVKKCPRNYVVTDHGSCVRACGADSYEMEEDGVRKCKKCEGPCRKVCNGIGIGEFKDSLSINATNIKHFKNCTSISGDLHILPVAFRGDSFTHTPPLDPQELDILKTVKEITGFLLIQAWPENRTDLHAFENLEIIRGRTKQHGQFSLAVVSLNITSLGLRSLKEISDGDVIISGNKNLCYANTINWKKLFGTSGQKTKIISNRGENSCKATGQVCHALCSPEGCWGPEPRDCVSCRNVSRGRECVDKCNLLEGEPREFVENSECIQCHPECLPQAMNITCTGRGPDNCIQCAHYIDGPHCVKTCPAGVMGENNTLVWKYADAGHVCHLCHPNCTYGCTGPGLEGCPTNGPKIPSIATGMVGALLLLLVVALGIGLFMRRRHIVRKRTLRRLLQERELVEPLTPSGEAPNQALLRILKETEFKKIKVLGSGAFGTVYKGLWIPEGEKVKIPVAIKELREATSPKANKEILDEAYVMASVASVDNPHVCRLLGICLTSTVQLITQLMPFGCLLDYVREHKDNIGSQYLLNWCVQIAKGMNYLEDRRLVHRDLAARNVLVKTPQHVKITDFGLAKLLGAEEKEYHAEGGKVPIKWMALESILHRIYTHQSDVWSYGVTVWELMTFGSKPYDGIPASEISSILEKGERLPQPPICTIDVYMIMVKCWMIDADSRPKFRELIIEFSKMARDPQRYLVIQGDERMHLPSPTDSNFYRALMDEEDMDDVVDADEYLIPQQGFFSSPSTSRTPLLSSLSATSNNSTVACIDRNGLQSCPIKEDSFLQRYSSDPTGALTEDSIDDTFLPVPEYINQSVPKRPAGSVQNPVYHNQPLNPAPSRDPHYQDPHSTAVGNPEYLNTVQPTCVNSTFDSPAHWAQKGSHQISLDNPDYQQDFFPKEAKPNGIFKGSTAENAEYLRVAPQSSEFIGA

For the compound `C=CC(=O)N1CC=C(c2c(OC)cc3ncnc4c3c2N(C)C(=O)N4c2ccc(Cl)c(Cl)c2F)CC1` [Compound 206, 9-(1-acryloyl-1,2,3,6-tetrahydropyridin-4-yl)-3-(3,4-dichloro-2-fluorophenyl)-8-methoxy-1-methyl-1H-pyrimido[4,5,6-de]quinazolin-2(3H)-one], the EC50 (in general, the concentration at which the effect is half-maximal) was not above 200 nM in experiment [1]; more than 1000 nM in experiment [2]; 200 to 1000 nM in experiment [3]; more than 1000 nM in experiment [4]; 200 to 1000 nM in experiment [5]; more than 1000 nM in experiment [6].
With `COc1cc2ncnc(Nc3ccc(Cl)c(Cl)c3F)c2c([N+](=O)[O-])c1OC1CCNCC1` [Compound 207, N-(3,4-dichloro-2-fluorophenyl)-7-methoxy-5-nitro-6-(piperidin-4-yloxy)quinazolin-4-amine hydrochloride], the EC50 in experiment [1] was not above 200 nM; in experiment [2] it was more than 1000 nM; in experiment [3] it was 200 to 1000 nM; in experiment [4], 200 to 1000 nM; in experiment [5], 200 to 1000 nM; in experiment [6] it was 200 to 1000 nM.
In the case of `C=CC(=O)N1CCC(Oc2c(OC)cc3ncnc(Nc4ccc(Cl)c(Cl)c4F)c3c2[N+](=O)[O-])CC1` [Compound 208, 1-(4-((4-((3,4-dichloro-2-fluorophenyl)amino)-7-methoxy-5-nitroquinazolin-6-yl)oxy)piperidin-1-yl)prop-2-en-1-one], the EC50 in experiment [1] is 200 to 1000 nM; in experiment [2] it was more than 1000 nM; in experiment [3], more than 1000 nM; in experiment [4], more than 1000 nM; in experiment [5] it was more than 1000 nM; in experiment [6], more than 1000 nM.
Consider `C=CC(=O)N1CCC(Oc2c(OC)cc3ncnc4c3c2NC(=O)N4c2ccc(Cl)c(Cl)c2)CC1` [Compound 215, 9-((1-acryloylpiperidin-4-yl)oxy)-3-(3,4-dichlorophenyl)-8-methoxy-1H-pyrimido[4,5,6-de]quinazolin-2(3H)-one], for which the EC50 was not above 200 nM in experiment [1]; more than 1000 nM in experiment [2]; more than 1000 nM in experiment [3]; more than 1000 nM in experiment [4]; more than 1000 nM in experiment [5]; more than 1000 nM in experiment [6].
`C=CC(=O)N1CC(Oc2c(OC)cc3ncnc4c3c2NC(=O)N4c2ccc(Cl)c(Cl)c2F)C1` [Compound 216, 9-((1-acryloylazetidin-3-yl)oxy)-3-(3,4-dichloro-2-fluorophenyl)-8-methoxy-1H-pyrimido[4,5,6-de]quinazolin-2(3H)-one]: the EC50 in experiment [1] is not above 200 nM; in experiment [2], not above 200 nM; in experiment [3] it was not above 200 nM; in experiment [4] it was not above 200 nM; in experiment [5], more than 1000 nM; in experiment [6], not above 200 nM.
On to `C=CC(=O)N1CCC(Oc2c(OC)cc3ncnc4c3c2C=C(C)N4c2ccc(Cl)c(Cl)c2F)CC1` [Compound 217, 1-(4-((4-(3,4-dichloro-2-fluorophenyl)-8-methoxy-5-methyl-4H-pyrido[2,3,4-de]quinazolin-7-yl)oxy)piperidin-1yl)prop-2-en-1-one], for which the EC50 in experiment [1] is not above 200 nM; in experiment [2] it was 200 to 1000 nM; in experiment [3] it was not above 200 nM; in experiment [4], 200 to 1000 nM; in experiment [5] it was more than 1000 nM; in experiment [6] it was 200 to 1000 nM.
Consider `C=CC(=O)N1CCC(Oc2c(OC)cc3ncnc4c3c2C=CN4c2ccc(Cl)c(Cl)c2F)CC1` [Compound 218, 1-(4-((4-(3,4-dichloro-2-fluorophenyl)-8-methoxy-4H-pyrido[2,3,4-de]quinazolin-7-yl)oxy)piperidin-1-yl)prop-2-en-1-one], for which the EC50 in experiment [1] was not above 200 nM; in experiment [2], 200 to 1000 nM; in experiment [3], not above 200 nM; in experiment [4] it was 200 to 1000 nM; in experiment [5] it was more than 1000 nM; in experiment [6] it was not above 200 nM.
Take `C=CS(=O)(=O)N1CCC(Oc2c(OC)cc3ncnc4c3c2NC(=O)N4c2ccc(Cl)c(Cl)c2F)CC1` [Compound 225, 3-(3,4-dichloro-2-fluorophenyl)-8-methoxy-9-((1-(vinylsulfonyl)piperidin-4-yl)oxy)-1H-pyrimido[4,5,6-de]quinazolin-2(3H)-one]: the EC50 in experiment [1] was not above 200 nM; in experiment [2], not above 200 nM; in experiment [3], not above 200 nM; in experiment [4], not above 200 nM; in experiment [5], more than 1000 nM; in experiment [6], not above 200 nM.
As for `C=CS(=O)(=O)N1CCC(Oc2c(OC)cc3ncnc4c3c2NC(=O)N4c2ccc(Cl)c(Cl)c2)CC1` [Compound 226, 3-(3,4-dichlorophenyl)-8-methoxy-9-((1-(vinylsulfonyl)piperidin-4-yl)oxy)-1H-pyrimido[4,5,6-de]quinazolin-2(3H)-one], the EC50 in experiment [1] is not above 200 nM; in experiment [2] it was 200 to 1000 nM; in experiment [3] it was 200 to 1000 nM; in experiment [4], not above 200 nM; in experiment [5] it was not above 200 nM; in experiment [6], not above 200 nM.
On to `C#CC(=O)N1CCC(Oc2c(OC)cc3ncnc4c3c2NC(=O)N4c2ccc(Cl)c(Cl)c2)CC1` [Compound 227, 3-(3,4-dichlorophenyl)-8-methoxy-9-((1-propioloylpiperidin-4-yl)oxy)-1H-pyrimido[4,5,6-de]quinazolin-2(3H)-one], for which the EC50 in experiment [1] is not above 200 nM; in experiment [2], 200 to 1000 nM; in experiment [3], 200 to 1000 nM; in experiment [4], not above 200 nM; in experiment [5], 200 to 1000 nM; in experiment [6], not above 200 nM.
For the compound `C=CC(=O)NC1COc2c(-c3cnc4ccccc4c3)c3c(N)ncnc3n2C1` (stereo not drawn) [Compound 228, N-(4-amino-5-(quinolin-3-yl)-8,9-dihydro-7H-pyrimido[5′,4′:4,5]pyrrolo[2,1-b][1,3]oxazin-8-yl)acrylamide], the EC50 was not above 200 nM in experiment [1]; more than 1000 nM in experiment [2]; 200 to 1000 nM in experiment [3]; not above 200 nM in experiment [4]; more than 1000 nM in experiment [5]; more than 1000 nM in experiment [6].
